Assay results reported in patent US10947289B2, “Glyco-modified atrial natriuretic peptide” (priority 2013, dated 2021).

Legend:
[1] = test system: cGMP concentration in plasma; assay: cGMP concentration in plasma of rats after intravenous injection (Test Example 3); format: in vivo; conditions: rat, 100 nmol/kg i.v.
Description: The duration time (the effect of persistently elevating cGMP in blood and the time for which a test substance was detectable in blood) of each modified peptide prepared in Example 2 in the blood of rats was examined by the following method:
Before the administration and 15, 30, 60, 90, 120, 180, and 240 minutes after the administration, blood was sampled (200 μL/sampling) over time from the jugular vein. The blood samples were immediately left on ice.
The collected blood samples were centrifuged at 5000 rpm at 4° C. for 5 minutes by use of a centrifuge (Sigma 4K15, rotor: Nr12130-H). The separated plasma samples were divided into two types (samples for PK measurement and for cGMP measurement) and stored at −80° C. until measurement.
The cGMP concentration in plasma was measured using Amersham cGMP Enzyme Immunoassay Biotrak™ (EIA) System (dual range) according to the protocol attached thereto.

[2] = Detection of test substance in rat plasma by LC-MS/MS (Test Example 3); format: in vivo; conditions: 100 nmol/kg i.v.; for Maximum time of detection after administration: rat plasma, LC-MS/MS, time at which the test substance was finally detected
Summary of the method: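 Jugular blood drawn before and 15–240 min after dosing; plasma spiked with stable-isotope hANP internal standard and AcOH/water/DMSO solvent, then passed through a 50K filter with the 3K-retained fraction analysed by LC-MS/MS. Value is the last time point at which test substance was detected.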

[3] = Detection in blood after subcutaneous administration to a monkey; format: in vivo
cGMP level in blood = cGMP level in blood after subcutaneous administration to a monkey; format: in vivo
human GC-A = molecular target: T1, human GC-A (Homo sapiens, UniProt P16066); assay: cGMP elevating activity in CHO/human GC-A cells (Test Example 1); format: cell-based
T1 construct: expressed in transfected cells; host or cells: CHO cells
T1 sequence (P16066 33-1061): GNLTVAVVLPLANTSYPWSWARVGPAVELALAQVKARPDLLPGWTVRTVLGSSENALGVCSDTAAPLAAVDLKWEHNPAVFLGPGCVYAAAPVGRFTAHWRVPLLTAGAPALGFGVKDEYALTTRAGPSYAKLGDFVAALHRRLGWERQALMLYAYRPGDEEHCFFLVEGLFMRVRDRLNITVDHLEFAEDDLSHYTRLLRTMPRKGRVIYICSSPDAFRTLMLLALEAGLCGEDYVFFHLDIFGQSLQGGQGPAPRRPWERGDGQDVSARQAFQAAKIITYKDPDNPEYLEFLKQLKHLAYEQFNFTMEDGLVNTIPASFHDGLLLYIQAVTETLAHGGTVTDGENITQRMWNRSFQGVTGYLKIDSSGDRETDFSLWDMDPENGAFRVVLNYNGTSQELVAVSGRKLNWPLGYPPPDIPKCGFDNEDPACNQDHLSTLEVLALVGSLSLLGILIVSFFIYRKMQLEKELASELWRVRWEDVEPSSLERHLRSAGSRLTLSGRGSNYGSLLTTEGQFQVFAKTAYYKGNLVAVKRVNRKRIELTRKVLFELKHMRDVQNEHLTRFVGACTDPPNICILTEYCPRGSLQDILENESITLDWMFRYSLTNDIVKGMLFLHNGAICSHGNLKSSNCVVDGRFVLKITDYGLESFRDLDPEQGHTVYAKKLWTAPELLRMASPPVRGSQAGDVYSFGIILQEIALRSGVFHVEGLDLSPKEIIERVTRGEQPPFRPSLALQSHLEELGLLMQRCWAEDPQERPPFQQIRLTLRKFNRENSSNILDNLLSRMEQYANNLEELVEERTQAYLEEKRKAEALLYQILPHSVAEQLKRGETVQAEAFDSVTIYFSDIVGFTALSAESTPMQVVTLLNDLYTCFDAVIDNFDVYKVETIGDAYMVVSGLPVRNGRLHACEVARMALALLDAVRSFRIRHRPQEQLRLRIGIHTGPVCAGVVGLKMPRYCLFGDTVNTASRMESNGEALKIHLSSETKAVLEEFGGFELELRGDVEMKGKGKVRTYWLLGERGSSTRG
Summary of the method: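 CHO cells stably expressing human GC-A, pre-incubated 10 min at room temperature in 1.6 mM IBMX/KRB, then exposed to test peptide 15 min in CO2 incubator. Lysate cGMP measured by HTRF. Activity (T/C) scaled so solvent-only = 0 and 1 nM ANP = 1.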

In the case of `CC[C@H](C)[C@@H]1NC(=O)[C@H](CCCNC(=N)N)NC(=O)[C@H](CC(=O)O)NC(=O)[C@H](CCSC)NC(=O)[C@H](CCCNC(=N)N)NC(=O)CNC(=O)CNC(=O)[C@H](Cc2ccccc2)NC(=O)[C@@H](NC(=O)[C@H](CO)NC(=O)[C@H](CO)NC(=O)[C@H](CCCNC(=N)N)NC(=O)[C@H](CCCNC(=N)N)NC(=O)[C@H](CC(C)C)NC(=O)[C@@H](N)CO)CSSC[C@@H](C(=O)N[C@@H](CC(N)=O)C(=O)N[C@@H](CO)C(=O)N[C@@H](Cc2ccccc2)C(=O)N[C@@H](CCCNC(=N)N)C(=O)N[C@@H](Cc2ccc(O)cc2)C(=O)O)NC(=O)CNC(=O)[C@H](CC(C)C)NC(=O)CNC(=O)[C@H](CO)NC(=O)[C@H](CCC(N)=O)NC(=O)[C@H](C)NC(=O)CNC1=O` [Native hANP, hANP(1-28)], the AUC60-240 ([1]; plasma cGMP) is reported as no more than 0 pmol·h/mL, the “All values integrated AUC 0-240” value ([1]; plasma cGMP, 0 to 240 minutes, Pre-value as baseline, points under baseline negative) is reported as 13.90 (pmol/ml)*h and the “All values integrated AUC 60-240” value ([1]; plasma cGMP, 60 to 240 minutes, Pre-value as baseline, points under baseline negative) is reported as −33.86 (pmol/ml)*h. The “Pre-value and higher values integrated AUC 60-240” value ([1]; plasma cGMP, 60 to 240 minutes, only points above baseline) was 0.00 (pmol/ml)*h, the “Elevation of cGMP in plasma at 60 minutes or later” value [1] was “disappeared completely” and the “cGMP level 30 minutes after the administration” value [1] was “a level close to that before the start of the administration”. For the same compound, the “Maximum time of detection after administration” value (from here on “Maximum time of detection”) [2] was 0 h, the “Detection of test substance in plasma sample” value ([2]; rat, 15 minutes after the administration) was “no longer detected” and the “Detection in blood after administration” value [3] was “no longer detected in blood 30 minutes after the administration”. For the same compound, the “Elevation of the cGMP level in blood after administration” value (cGMP level in blood) was “returns, 60 minutes after the administration, to the same level as that before the administration”.
In the case of `CC[C@H](C)[C@@H]1NC(=O)[C@H](CCCNC(=N)N)NC(=O)[C@H](CC(=O)O)NC(=O)[C@H](CCSC)NC(=O)[C@H](CCCNC(=N)N)NC(=O)CNC(=O)CNC(=O)[C@H](Cc2ccccc2)NC(=O)[C@@H](NC(=O)[C@H](CO)NC(=O)[C@H](CO)NC(=O)[C@H](CCCNC(=N)N)NC(=O)[C@H](CCCNC(=N)N)NC(=O)[C@H](CC(C)C)NC(=O)[C@H](CO)NC(=O)CNC(=O)[C@H](CCCCNC(=O)CO[C@@H]2O[C@H](CO)[C@@H](O[C@@H]3O[C@H](CO)[C@@H](O[C@@H]4O[C@H](CO[C@H]5O[C@H](CO)[C@@H](O)[C@H](O)[C@@H]5O[C@@H]5O[C@H](CO)[C@@H](O[C@@H]6O[C@H](CO[C@]7(C(=O)O)C[C@H](O)[C@@H](NC(C)=O)[C@H]([C@H](O)[C@H](O)CO)O7)[C@H](O)[C@H](O)[C@H]6O)[C@H](O)[C@H]5NC(C)=O)[C@@H](O)[C@H](O[C@H]5O[C@H](CO)[C@@H](O)[C@H](O)[C@@H]5O[C@@H]5O[C@H](CO)[C@@H](O[C@@H]6O[C@H](CO[C@]7(C(=O)O)C[C@H](O)[C@@H](NC(C)=O)[C@H]([C@H](O)[C@H](O)CO)O7)[C@H](O)[C@H](O)[C@H]6O)[C@H](O)[C@H]5NC(C)=O)[C@@H]4O)[C@H](O)[C@H]3NC(C)=O)[C@H](O)[C@H]2NC(C)=O)NC(=O)CO[C@@H]2O[C@H](CO)[C@@H](O[C@@H]3O[C@H](CO)[C@@H](O[C@@H]4O[C@H](CO[C@H]5O[C@H](CO)[C@@H](O)[C@H](O)[C@@H]5O[C@@H]5O[C@H](CO)[C@@H](O[C@@H]6O[C@H](CO[C@]7(C(=O)O)C[C@H](O)[C@@H](NC(C)=O)[C@H]([C@H](O)[C@H](O)CO)O7)[C@H](O)[C@H](O)[C@H]6O)[C@H](O)[C@H]5NC(C)=O)[C@@H](O)[C@H](O[C@H]5O[C@H](CO)[C@@H](O)[C@H](O)[C@@H]5O[C@@H]5O[C@H](CO)[C@@H](O[C@@H]6O[C@H](CO[C@]7(C(=O)O)C[C@H](O)[C@@H](NC(C)=O)[C@H]([C@H](O)[C@H](O)CO)O7)[C@H](O)[C@H](O)[C@H]6O)[C@H](O)[C@H]5NC(C)=O)[C@@H]4O)[C@H](O)[C@H]3NC(C)=O)[C@H](O)[C@H]2NC(C)=O)CSSC[C@@H](C(=O)N[C@@H](CC(N)=O)C(=O)N[C@@H](CO)C(=O)N[C@@H](Cc2ccccc2)C(=O)N[C@@H](CCCNC(=N)N)C(=O)N[C@@H](Cc2ccc(O)cc2)C(=O)O)NC(=O)CNC(=O)[C@H](CC(C)C)NC(=O)CNC(=O)[C@H](CO)NC(=O)[C@H](CCC(N)=O)NC(=O)[C@H](C)NC(=O)CNC1=O` [Compound 2-14, SG-(SG-)Lys-Gly-hANP(1-28)], the EC50 (human GC-A) is reported as 0.6 nM and the “Maximum time of detection” value [2] is reported as 1.5 h.
For `CC[C@H](C)[C@@H]1NC(=O)[C@H](CCCNC(=N)N)NC(=O)[C@H](CC(=O)O)NC(=O)[C@H](CCSC)NC(=O)[C@H](CCCNC(=N)N)NC(=O)CNC(=O)CNC(=O)[C@H](Cc2ccccc2)NC(=O)[C@@H](NC(=O)[C@H](CO)NC(=O)[C@H](CO)NC(=O)[C@H](CCCNC(=N)N)NC(=O)[C@H](CCCNC(=N)N)NC(=O)[C@H](CC(C)C)NC(=O)[C@H](CO)NC(=O)CCSCC(=O)NCCO[C@@H]2O[C@H](CO)[C@@H](O[C@@H]3O[C@H](CO)[C@@H](O[C@@H]4O[C@H](CO[C@H]5O[C@H](CO)[C@@H](O)[C@H](O)[C@@H]5O[C@@H]5O[C@H](CO)[C@@H](O[C@@H]6O[C@H](CO[C@]7(C(=O)O)C[C@H](O)[C@@H](NC(C)=O)[C@H]([C@H](O)[C@H](O)CO)O7)[C@H](O)[C@H](O)[C@H]6O)[C@H](O)[C@H]5NC(C)=O)[C@@H](O)[C@H](O[C@H]5O[C@H](CO)[C@@H](O)[C@H](O)[C@@H]5O[C@@H]5O[C@H](CO)[C@@H](O[C@@H]6O[C@H](CO[C@]7(C(=O)O)C[C@H](O)[C@@H](NC(C)=O)[C@H]([C@H](O)[C@H](O)CO)O7)[C@H](O)[C@H](O)[C@H]6O)[C@H](O)[C@H]5NC(C)=O)[C@@H]4O)[C@H](O)[C@H]3NC(C)=O)[C@H](O)[C@H]2NC(C)=O)CSSC[C@@H](C(=O)N[C@@H](CC(N)=O)C(=O)N[C@@H](CO)C(=O)N[C@@H](Cc2ccccc2)C(=O)N[C@@H](CCCNC(=N)N)C(=O)N[C@@H](Cc2ccc(O)cc2)C(=O)O)NC(=O)CNC(=O)[C@H](CC(C)C)NC(=O)CNC(=O)[C@H](CO)NC(=O)[C@H](CCC(N)=O)NC(=O)[C@H](C)NC(=O)CNC1=O` [Compound 2-25, SG-thioacetamide-hANP(1-28)], the EC50 (human GC-A) was 0.054 nM and the “Maximum time of detection” value [2] was 2 h.
